Experiment: Rate of NO release (UV absorbance decay at 248 nm in pH 7.4 buffer)
Assay type: physicochemical
Settings: 0.25 mM diazeniumdiolate in 100 mM pH 7.4 phosphate buffer, 22° C., absorbance at 248 nm; t½=ln(2)/k
Procedure: Compounds of the invention were evaluated for the rate of NO release using the following protocol described below.
The method described by Maragos, C. M, et al. Med. Chem. 1991, 34, 3242-3247, was followed. A 100 mM solution of pH 7.4 buffer was prepared by dissolving 626 mg of NaH2PO4.H2O and 4155 mg of Na2HPO4.7H2O in 200 mL of water. The 0.01 M solution of the individual diazeniumdiolate was prepared by dissolving the sodium diazeniumdiolate in 0.01 M sodium hydroxide solution. All solutions used were kept at room temperature. The cuvette incubator was set at 22° C. 25 μL of the 0.01 M diazeniumdiolate solution was added to a cuvette, followed by dilution with 975 μL of pH 7.4 buffer to obtain a 0.25 (25 uL of 0.01 M diluted to 1000 ul will be 0.25 mM) mM solution. The cuvette was inserted into the UV spectrometer, and its absorbance at λ=248 nm was acquired every 3 seconds.
The general first-order rate equation is: […]
The method of Kezdy, F. J.; Jaz, J.; Bruylants, A. Bull. Soc. Chim. Belg. 1958, 67, 687-706, later elaborated by Schwartz, L. M.; Gelb, R. I. Anal. Chem. 1978, 50, 1592-1594, was used to analyze the data without measuring A∞. Two equations are obtained when the measurement At is made at t and At+Δt is made at t+Δt. Dividing these two equations and rearranging the resultant equation, we arrive at
At=At+Δte^−k!+A∞(1−e^kΔt)
Plotting At against At+Δt would yield a straight line with k=−ln(slope)/Δt, A∞=intercept/(1−slope). As a result, t½=ln(2)/k.

SMILES | half-life at 0.25 mM [min]
CCCN(/[N+]([O-])=N/[O-])C(C)(C)C.[Na+] [Example 1, Sodium 1-(N-tert-butyl-N-propylamino)diazen-1-ium-1,2-diolate] | 1.45
CC(C)(C)N(CCO)/[N+]([O-])=N/[O-].[Na+] [Example 3, Sodium 1-[N-tert-butyl-N-(2′-hydroxyethyl)amino]diazen-1-ium-1,2-diolate] | 3.42
C=CCN(/[N+]([O-])=N/[O-])C(C)(C)C.[Na+] [Example 2, Sodium 1-(N-text-butyl-N-allylamino)diazen-1-ium-1,2-diolate] | 3.17

Source: patent US20130296278A1, “Diazeniumdiolate Derivatives” (Merck Sharp & Dohme Corp., priority 2011, published 2013)
